Patent US10927123B2, “Modulators of the beta-3 adrenergic receptor useful for the treatment or prevention of disorders related thereto” (Arena Pharmaceuticals, Inc., priority 2016, dated 2021)

Molecular target: Beta-3 Adrenergic Receptor (Homo sapiens (Human), UniProt P13945)
Experiment: HTRF cAMP antagonist assay (IC50 determination)
Assay type: cell-based
Details: CHO-K1 cells stably expressing recombinant receptor; antagonism of isoproterenol at EC90; cAMP readout
Procedure, shortened: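 Antagonist mode: isoproterenol at its predetermined EC90 added after compound to recombinant CHO-K1 cells in IBMX-containing PBS, 1 h, room temperature. Compounds tested as 5-fold, 10-point dilutions, top final typically 10 or 100 μM. HTRF signal converted to cAMP via standard curve, giving IC50.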

Sequence of Beta-3 Adrenergic Receptor (P13945 whole entry, species assumed): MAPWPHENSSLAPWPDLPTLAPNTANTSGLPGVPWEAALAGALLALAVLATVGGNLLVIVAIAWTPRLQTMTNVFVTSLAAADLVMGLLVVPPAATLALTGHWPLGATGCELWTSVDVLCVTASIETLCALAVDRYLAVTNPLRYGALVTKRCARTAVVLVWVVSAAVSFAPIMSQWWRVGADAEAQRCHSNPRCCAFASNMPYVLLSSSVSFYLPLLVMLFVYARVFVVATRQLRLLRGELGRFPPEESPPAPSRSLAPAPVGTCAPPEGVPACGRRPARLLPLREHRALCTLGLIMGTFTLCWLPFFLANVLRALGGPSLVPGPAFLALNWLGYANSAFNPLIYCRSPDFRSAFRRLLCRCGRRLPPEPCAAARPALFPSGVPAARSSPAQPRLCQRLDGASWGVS

IC50	SMILES
23.9 nM	CS(=O)(=O)c1cccc(OC[C@@H](O)CNC2COC3(CCN(S(=O)(=O)c4ccc5c(c4)NC(=O)CO5)CC3)C2)c1 (stereo partly drawn) [Compound 53, 6-(3-((S)-2-hydroxy-3-(3-(methylsulfonyl)phenoxy)propylamino)-1-oxa-8-azaspiro[4.5]decan-8-ylsulfonyl)-2H-benzo[b][1,4]oxazin-3(4H)-one]
45.9 nM	CS(=O)(=O)c1cccc(OC[C@@H](O)CNC2COC3(CCN(S(=O)(=O)c4cccc(F)c4)CC3)C2)c1 (stereo partly drawn) [Compound 54, (2S)-1-(8-(3-fluorophenylsulfonyl)-1-oxa-8-azaspiro[4.5]decan-3-ylamino)-3-(3-(methylsulfonyl)phenoxy)propan-2-ol]
12.1 nM	CC(C)S(=O)(=O)c1cccc(OC[C@@H](O)CNC2COC3(CCN(S(=O)(=O)c4ccc5ccccc5c4)CC3)C2)c1 (stereo partly drawn) [Compound 8, (2S)-1-(3-(isopropylsulfonyl)phenoxy)-3-(8-(naphthalen-2-ylsulfonyl)-1-oxa-8-azaspiro[4.5]decan-3-ylamino)propan-2-ol]
466 nM	O=S(=O)(CCO)c1cccc(OC[C@@H](O)CN[C@H]2COC3(CCN(S(=O)(=O)c4ccc(-c5ccncc5)cc4)CC3)C2)c1 [Compound 101, (S)-1-(3-(2-hydroxyethylsulfonyl)phenoxy)-3-((R)-8-(4-(pyridin-4-yl)phenylsulfonyl)-1-oxa-8-azaspiro[4.5]decan-3-ylamino)propan-2-ol]
21.8 nM	O=S(=O)(c1ccc2ncccc2c1)N1CCC2(CC1)C[C@@H](NC[C@H](O)COc1cccc(S(=O)(=O)C(F)(F)CO)c1)CO2 [Compound 148, (S)-1-(3-(1,1-difluoro-2-hydroxyethylsulfonyl)phenoxy)-3-((R)-8-(quinolin-6-ylsulfonyl)-1-oxa-8-azaspiro[4.5]decan-3-ylamino)propan-2-ol]
21.1 nM	CCC(C)(C)NCc1ccc(-c2cccc(S(=O)(=O)N3CCC4(CC3)C[C@H](NC[C@H](O)COc3cccc(S(=O)(=O)C5(CO)CC5)c3)CO4)c2)cc1 [Compound 241, (S)-1-(3-(1-(hydroxymethyl)cyclopropylsulfonyl)phenoxy)-3-((S)-8-(4′-((tert-pentylamino)methyl)biphenyl-3-ylsulfonyl)-1-oxa-8-azaspiro[4.5]decan-3-ylamino)propan-2-ol]
10.3 nM	NCc1ccc(-c2cccc(S(=O)(=O)N3CCC4(CC3)C[C@@H](NC[C@H](O)COc3cccc(S(=O)(=O)C5CC5)c3)CO4)c2)cc1 [Compound 189, (S)-1-((R)-8-(4′-(aminomethyl)biphenyl-3-ylsulfonyl)-1-oxa-8-azaspiro[4.5]decan-3-ylamino)-3-(3-(cyclopropylsulfonyl)phenoxy)propan-2-ol]
158 nM	Cc1nc2c(cc1S(=O)(=O)N1CCC3(CC1)C[C@@H](NC[C@H](O)COc1cccc(S(=O)(=O)C4CC4)c1)CO3)N(C)CCO2 [Compound 259, (S)-1-(3-(cyclopropylsulfonyl)phenoxy)-3-((R)-8-(1,6-dimethyl-2,3-dihydro-1H-pyrido[2,3-b][1,4]oxazin-7-ylsulfonyl)-1-oxa-8-azaspiro[4.5]decan-3-ylamino)propan-2-ol]
25 nM	CC(C)Oc1ccc(-c2ccc(CN)cc2)cc1S(=O)(=O)N1CCC2(CC1)C[C@@H](NC[C@H](O)COc1cccc(S(=O)(=O)C3CC3)c1)CO2 [Compound 171, (S)-1-((R)-8-(4′-(aminomethyl)-4-isopropoxybiphenyl-3-ylsulfonyl)-1-oxa-8-azaspiro[4.5]decan-3-ylamino)-3-(3-(cyclopropylsulfonyl)phenoxy)propan-2-ol]
15 nM	CCOc1ccc(-c2ccc(CN)cc2)cc1S(=O)(=O)N1CCC2(CC1)C[C@H](NC[C@H](O)COc1cccc(S(=O)(=O)COC)c1)CO2 [Compound 230, (S)-1-((S)-8-(4′-(aminomethyl)-4-ethoxybiphenyl-3-ylsulfonyl)-1-oxa-8-azaspiro[4.5]decan-3-ylamino)-3-(3-(methoxymethylsulfonyl)phenoxy)propan-2-ol]
13.2 nM	O=S(=O)(c1cccc(OC[C@@H](O)CN[C@H]2COC3(CCN(S(=O)(=O)c4ccc5ncccc5c4)CC3)C2)c1)C1CC1 [Compound 143, (S)-1-(3-(cyclopropylsulfonyl)phenoxy)-3-((R)-8-(quinolin-6-ylsulfonyl)-1-oxa-8-azaspiro[4.5]decan-3-ylamino)propan-2-ol]
487 nM	CS(=O)(=O)c1cccc(OC[C@@H](O)CNC2COC3(CCN(C(=O)c4ccc5ccccc5c4)CC3)C2)c1 (stereo partly drawn) [Compound 57, (3-((S)-2-hydroxy-3-(3-(methylsulfonyl)phenoxy)propylamino)-1-oxa-8-azaspiro[4.5]decan-8-yl)(naphthalen-2-yl)methanone]
178 nM	Cc1c(S(=O)(=O)N2CCC3(CC2)C[C@@H](NC[C@H](O)COc2cccc(S(=O)(=O)C4(CO)CC4)c2)CO3)cnc2c1N(C)CCO2 [Compound 260, (S)-1-((R)-8-(1,8-dimethyl-2,3-dihydro-1H-pyrido[2,3-b][1,4]oxazin-7-ylsulfonyl)-1-oxa-8-azaspiro[4.5]decan-3-ylamino)-3-(3-(1-(hydroxymethyl)cyclopropylsulfonyl)phenoxy)propan-2-ol]
1600 nM	O=C(O)CS(=O)(=O)c1cccc(OC[C@@H](O)CN[C@H]2COC3(CCN(S(=O)(=O)c4cnc5ccccc5c4)CC3)C2)c1 [Compound 183, 2-(3-((S)-2-hydroxy-3-((R)-8-(quinolin-3-ylsulfonyl)-1-oxa-8-azaspiro[4.5]decan-3-ylamino)propoxy)phenylsulfonyl)acetic acid]
562 nM	O=S(=O)(CCCO)c1cccc(OC[C@@H](O)CN[C@H]2COC3(CCN(S(=O)(=O)c4ccc5ncccc5c4)CC3)C2)c1 [Compound 121, 3-(3-((S)-2-hydroxy-3-((R)-8-(quinolin-6-ylsulfonyl)-1-oxa-8-azaspiro[4.5]decan-3-ylamino)propoxy)phenylsulfonyl)propan-1-ol]
26.5 nM	CCn1cc(S(=O)(=O)N2CCC3(CC2)C[C@@H](NC[C@H](O)COc2cccc(S(=O)(=O)C4CC4)c2)CO3)c(=O)c2ccccc21 [Compound 297, 3-((R)-3-((S)-3-(3-(cyclopropylsulfonyl)phenoxy)-2-hydroxypropylamino)-1-oxa-8-azaspiro[4.5]decan-8-ylsulfonyl)-1-ethylquinolin-4(1H)-one]
97.8 nM	O=S(=O)(CC1CCC1)c1cccc(OC[C@@H](O)CNC2COC3(CCN(S(=O)(=O)c4ccc5ccccc5c4)CC3)C2)c1 (stereo partly drawn) [Compound 13, (2S)-1-(3-(cyclobutylmethylsulfonyl)phenoxy)-3-(8-(naphthalen-2-ylsulfonyl)-1-oxa-8-azaspiro[4.5]decan-3-ylamino)propan-2-ol]
110 nM	CCn1cc(S(=O)(=O)N2CCC3(CC2)C[C@@H](NC[C@H](O)COc2cccc(S(=O)(=O)C(C)(C)CO)c2)CO3)c(=O)c2ccccc21 [Compound 294, 1-ethyl-3-((R)-3-((S)-2-hydroxy-3-(3-(1-hydroxy-2-methylpropan-2-ylsulfonyl)phenoxy)propylamino)-1-oxa-8-azaspiro[4.5]decan-8-ylsulfonyl)quinolin-4(1H)-one]
51.2 nM	CC(C)Oc1ccc(-c2ccc(CN)cc2)cc1S(=O)(=O)N1CCC2(CC1)C[C@H](NC[C@H](O)COc1cccc(S(=O)(=O)C3CC3)c1)CO2 [Compound 166, (S)-1-((S)-8-(4′-(aminomethyl)-4-isopropoxybiphenyl-3-ylsulfonyl)-1-oxa-8-azaspiro[4.5]decan-3-ylamino)-3-(3-(cyclopropylsulfonyl)phenoxy)propan-2-ol]
26.7 nM	CS(=O)(=O)c1cccc(OC[C@@H](O)CNC2COC3(CCN(S(=O)(=O)c4ccc5ncccc5c4)CC3)C2)c1 (stereo partly drawn) [Compound 75, (2S)-1-(3-(methylsulfonyl)phenoxy)-3-(8-(quinolin-6-ylsulfonyl)-1-oxa-8-azaspiro[4.5]decan-3-ylamino)propan-2-ol]
72.4 nM	O=S(=O)(CCO)c1cc(F)cc(OC[C@@H](O)CN[C@H]2COC3(CCN(S(=O)(=O)c4cnc5ccccc5c4)CC3)C2)c1 [Compound 248, (S)-1-(3-fluoro-5-(2-hydroxyethylsulfonyl)phenoxy)-3-((R)-8-(quinolin-3-ylsulfonyl)-1-oxa-8-azaspiro[4.5]decan-3-ylamino)propan-2-ol]
47.6 nM	CN1CCN(C)c2ncc(S(=O)(=O)N3CCC4(CC3)C[C@@H](NC[C@H](O)COc3cccc(S(=O)(=O)C5(CO)CC5)c3)CO4)cc21 [Compound 222, (S)-1-((R)-8-(1,4-dimethyl-1,2,3,4-tetrahydropyrido[3,2-b]pyrazin-7-ylsulfonyl)-1-oxa-8-azaspiro[4.5]decan-3-ylamino)-3-(3-(1-(hydroxymethyl)cyclopropylsulfonyl)phenoxy)propan-2-ol]
36.7 nM	CCOc1ccc(-c2ccc(CCN)cc2)cc1S(=O)(=O)N1CCC2(CC1)C[C@H](NC[C@H](O)COc1cccc(S(=O)(=O)C3(CO)CC3)c1)CO2 [Compound 214, (S)-1-((S)-8-(4′-(2-aminoethyl)-4-ethoxybiphenyl-3-ylsulfonyl)-1-oxa-8-azaspiro[4.5]decan-3-ylamino)-3-(3-(1-(hydroxymethyl)cyclopropylsulfonyl)phenoxy)propan-2-ol]
38.1 nM	CC(C)NCc1ccc(-c2cccc(S(=O)(=O)N3CCC4(CC3)CC(NC[C@H](O)COc3cccc(S(C)(=O)=O)c3)CO4)c2)cc1 (stereo partly drawn) [Compound 80, (2S)-1-(8-(4′-((isopropylamino)methyl)biphenyl-3-ylsulfonyl)-1-oxa-8-azaspiro[4.5]decan-3-ylamino)-3-(3-(methylsulfonyl)phenoxy)propan-2-ol]
336 nM	Cc1c(S(=O)(=O)N2CCC3(CC2)C[C@H](NC[C@H](O)COc2cccc(S(=O)(=O)C4(CO)CC4)c2)CO3)cnc2c1N(C)CCO2 [Compound 250, (S)-1-((S)-8-(1,8-dimethyl-2,3-dihydro-1H-pyrido[2,3-b][1,4]oxazin-7-ylsulfonyl)-1-oxa-8-azaspiro[4.5]decan-3-ylamino)-3-(3-(1-(hydroxymethyl)cyclopropylsulfonyl)phenoxy)propan-2-ol]
